This is an account of results in patent publication US5817840A, “Water soluble taxol derivatives” (The Scripps Research Institute, priority 1997, dated 1998).

The structures appear in SMILES notation. Entries after “also recorded” stand apart in the source; their conditions may differ.

Data set [1] has as its system UCLA-P-3 (lung carcinoma). Briefly: Cytotoxicity (sulphorhodamine B), cancer cell line, Table 1B. The settings on record: Homo sapiens, UCLA P-3, 72 h. It is filed as cell-based.
Method: (§2) The cytotoxicities were determined using the sulphorhodamine B assay method (Skehan, P. et al. J. Nat. Canc. Inst. 82, 1107 (1990)).
Data set [2] in a line: Taxol release in human blood plasma at 37° C. It is filed as in vitro ADME. The method, then: Protaxol 5 and N-cyclohexylbenzamide (as internal standard) were dissolved in acetonitrile and immediatley added to human plasma or phosphate buffer at pH 7.4. Samples-of protaxol 5 were incubated in each medium for specified times and then extracted with ethyl acetate as described by S. M. Longnecker, et al., Cancer Treat. Rep. 71, 53 (1987). Solvent was removed and the residue dissolved in acetonitrile and analysed by HPLC as already described. The peak areas for compound 5 and taxol were normalized to that of the internal standard using a calibration curve.

Data set [3] relates to RPMI-7666 (normal human PBLs). Briefly: Cytotoxicity (sulphorhodamine B), normal cell line, Table 1B. It is filed as cell-based. The conditions noted are these: 72 h.
Method: as §2
Data set [4] can be described thus: Water solubility in D2O by 1H NMR. The settings on record: compared to taxol. How it is done: The solubilities of the synthesized protaxols in D2 O were determined by 1H NMR spectroscopy.
The resulting mixture was centrifuged for 20 minutes and the supernatant saturated solution was analysed by ^1 H NMR spectroscopy using a Bruker AMX-400 instrument and methanol or pyridine as internal standard. The concentration of the compound was determined by comparing several signals with the CH3 signal of methanol or the NCH signal of pyridine.

A further data set relates to L1210 (mouse leukaemia). Briefly: Cytotoxicity (sulphorhodamine B), cancer cell line, Table 1B. Format: cell-based. The settings on record: L1210, 72 h.
In a further data set the test system is HT-29 (colon carcinoma). Described as above. It is filed as cell-based. The conditions noted are these: Homo sapiens, HT-29, 72 h.
Data set [5] concerns PC-3 (prostate carcinoma). The description is as above. It is filed as cell-based. The conditions noted are these: Homo sapiens, 72 h.
Method: as §2
Data set [6] concerns BALB/c 3T3 (normal mouse embryo). Briefly: Cytotoxicity (sulphorhodamine B), normal cell line, Table 1B. The conditions noted are these: BALB/c3T3, 72 h. Format: cell-based.
Method: as §2
Another data set has as its system SK (melanoma). The experiment in a line: Cytotoxicity (sulphorhodamine B), cancer cell line, Table 1B. Format: cell-based. The settings on record: 72 h.
Data set [7] is described as follows: Stability in aqueous media, aprotic organic solvents and solid state. The settings on record: aqueous media / pH 7.0 buffer / 20° C. It is filed as physicochemical. The source says:
(§1) The derivatives in which the C-7 hydroxyl group was acetylated were extremely unstable in aqueous media losing the C-7 substituent very rapidly. The stability of the synthesized compounds was examined at various pH's and temperatures. […] Table 1A includes the half-lives of six of these compounds at pH 7.5 and 9. […] This illustrates the ability to fine-tune the rate of release of taxol to a desired set of conditions using simple chemical principles.

The next data set relates to Capan-1 (pancreatic). The experiment in a line: Cytotoxicity (sulphorhodamine B), cancer cell line, Table 1B. It is filed as cell-based. The conditions noted are these: Homo sapiens, CAPAN-1, 72 h.
The subject of a further data set is SIHA (cervix carcinoma). The description is as above. Format: cell-based. The settings on record: Homo sapiens, SiHa, 72 h.
The subject of another data set is MCF-7 (breast carcinoma). Described as above. The conditions noted are these: Homo sapiens, MCF7, 72 h. It is filed as cell-based.
For data set [8], the system named is CHO (normal human mammary). Briefly: Cytotoxicity (sulphorhodamine B), normal cell line, Table 1B. It is filed as cell-based. The conditions noted are these: Homo sapiens, 72 h.
The test system of data set [9] is HL-60 (promyel carcinoma). The experiment in a line: Cytotoxicity (sulphorhodamine B), cancer cell line, Table 1B. The settings on record: Homo sapiens, HL-60, 72 h. Format: cell-based.
Method: as §2
Data set [10] relates to OVCAR-3 (ovarian carcinoma). The data set is described as above. It is filed as cell-based. The settings on record: Homo sapiens, OVCAR-3, 72 h.
Method: as §2
Another data set relates to tubulin / microtubules. The experiment in a line: Tubulin polymerization-depolymerization (CaCl2-induced depolymerization of microtubules). Format: biochemical. The settings on record: 10^-6 M, 1.0 mg/mL tubulin. How it is done:
Tubulin polymerization to microtubules is promoted by GTP, whereas CaCl2 causes depolymerization of microtubules back to tubulin (FIG. 3A). […] The designed protaxol 5 was tested for its ability to stabilize microtubules formed from tubulin via the action of GTP. […] These findings are in agreement with the previously reported loss of activity resulting from blocking the C-2' hydroxyl group.
Tubulin polynerization-depolymerization experiments with taxol and designed protaxol 5 are illustrated in FIG. 3. CaCl2 -promoted depolymerization of microtubules was suppressed by taxol and protaxol 5 (after taxol release).
These measurements may be conducted at 37° C. following a recently developed procedure described by R. Merlock and W. Wrasidlo (Analytical Biochemistry, 1993). In each case 1.0 mM GTP may be employed to promote initial polymerization of tubulin.
D: Tubulin (1.0 mg/mL) with protaxol 5 (10^-6 M) after release of taxol (as determined by HPLC, essentially quantitative conversion).

Data set [11] relates to BT-549 (breast carcinoma). The experiment in a line: Cytotoxicity (sulphorhodamine B), cancer cell line, Table 1B. It is filed as cell-based. The settings on record: Homo sapiens, BT-549, 72 h.
Method: as §2
The nature of data set [12]: Taxol release from protaxols in aqueous buffer. It is filed as physicochemical. The settings on record: pH 7.0-9.0, 20 and 37° C., FIG. 2A. How it is done:
as §1
Protaxol 5 was dissolved in dimethylsulphoxide (DMSO) at 25° C. and immediately added to the appropriate phosphate buffer solution at the specified temperature. Aliquots were analysed using a Waters Maxima system HPLC instrument equipped with auto-injector (3.9×300 mm C18 column equipped with a precolumn; flow rate, 1.5 ml min^-1; eluant, gradient A-B, where A is 80% 100 mM ammonium acetate, buffer pH 6.0, and B is 100% methanol; ultraviolet detector). The per cent taxol released was determined from the relative areas of the peaks corresponding to protaxol 5 and taxol (the conversion was clean, and it was assumed that the two compounds have equal molar extinction coefficients).

Method for Capan-1 (pancreatic): as §2
Method for HT-29 (colon carcinoma): as §2
Method for L1210 (mouse leukaemia): as §2
Method for MCF-7 (breast carcinoma): as §2
Method for SIHA (cervix carcinoma): as §2
Method for SK (melanoma): as §2

The IC50 is the concentration that gives 50% inhibition. A high value points to weaker potency. The half-life is the time in which the quantity being followed falls by half. A high value points to slow loss. Regarding `CC(=O)O[C@H]1C(=O)[C@@]2(C)[C@H]([C@H](OC(=O)c3ccccc3)[C@]3(O)C[C@H](OC(=O)[C@H](OC(=O)CS(=O)(=O)CC(=O)O)[C@@H](NC(=O)c4ccccc4)c4ccccc4)C(C)=C1C3(C)C)[C@]1(OC(C)=O)CO[C@@H]1C[C@@H]2O` [Compound 5], the IC50 was below 0.001 µM in data set [1]; 100 µM in data set [3]; 10 µM in the data set with L1210 (mouse leukaemia); below 0.001 µM with HT-29 (colon carcinoma); 1 µM in data set [5]; 10 µM in [6]. Also, the half-inhibitory concentration (IC50) with SK (melanoma) is 10 µM; in the data set on Capan-1 (pancreatic), below 0.001 µM; in the data set with SIHA (cervix carcinoma) it was 100 µM; in the data set on MCF-7 (breast carcinoma), 10 µM; in data set [8], 100 µM; in [9], below 0.001 µM. For the same molecule, the IC50 in data set [10] and in [11] was below 0.001 µM in each case. In addition, in data set [2] (compared to pH 7.4 buffer), the “taxol release in human blood plasma (in words)” value is listed as “accelerated release of taxol; also recorded: rapidly releasing taxol”. Also, in data set [2] (human blood plasma), the half-life was around 1.67 h. Further, the “Water solubility (in words)” value in data set [4] is listed as “good solubility”. Further, the “stability in aqueous media” value in data set [7] was “good solubility and stability properties in aqueous media; also recorded: quite stable”. Also, the “prevention of CaCl2-induced depolymerization of microtubules” value with tubulin / microtubules (CaCl2 0.25 mM after 16 minutes, 37° C., initial, no prior release) was “failed to prevent CaCl2-induced disassembly of microtubules; also recorded: caused depolymerization of microtubules”. The “prevention of CaCl2-induced depolymerization of microtubules after taxol release” value in the data set on tubulin / microtubules (after prolonged exposure / release of taxol) was “reached potencies comparable to that of taxol; also recorded: suppressed”. The “effect of temperature and pH on taxol release” value in [12] was “accelerating effect of higher temperatures and pH on taxol release”.
